Results published in US6921821B2, “Antagonists of melanin concentrating hormone receptor” (Abbott Laboratories, priority 2002, dated 2005).
Counter-ions that a name gives are not always drawn.

Biological target: T1, murine MCHR (Mus musculus, UniProt Q8JZL2)
T1 construct: expressed in transfected cells; host or cells: HEK293
Test: Assay for release of intracellular calcium (FLIPR, Fluo-4), inhibition of MCH-induced Ca++ flux
Assay type: cell-based
Settings: test compound at a dose of 10 μM, HEK293 cells expressing the murine MCHR, read-out: inhibition of MCH (MCH induced Ca++ flux / fluorescence)
How it was run: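 HEK293 cells expressing murine MCHR were loaded with Fluo-4AM (2.5 μM) and given compound (40 μM stock in 4% DMSO), with 3 min monitoring for agonism. They were then challenged with mouse MCH (12 nM as added) and FLIPR fluorescence followed 3 min more. % inhibition of MCH-induced Ca++ flux was calculated against baseline and no-compound signals.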

T1 sequence (Q8JZL2 whole entry): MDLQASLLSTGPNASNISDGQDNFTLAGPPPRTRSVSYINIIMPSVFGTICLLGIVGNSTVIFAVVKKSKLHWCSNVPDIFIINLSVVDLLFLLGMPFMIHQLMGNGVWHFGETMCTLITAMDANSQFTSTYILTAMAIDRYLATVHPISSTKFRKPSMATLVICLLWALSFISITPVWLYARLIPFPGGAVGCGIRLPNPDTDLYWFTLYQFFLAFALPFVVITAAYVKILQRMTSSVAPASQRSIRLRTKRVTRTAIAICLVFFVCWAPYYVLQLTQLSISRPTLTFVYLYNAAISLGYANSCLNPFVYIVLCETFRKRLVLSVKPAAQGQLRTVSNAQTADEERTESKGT

Inhibition at 10 µM, ≥ 50%:
COc1ccc2oc(=O)cc(NC3CCN(Cc4ccc(OC)c(C)c4)CC3)c2c1 [II-37, 6-Methoxy-4-[1-(4-methoxy-3-methyl-benzyl)-piperidin-4-ylamino]-chromen-2-one trifluoroacetate]
COc1ccc(CN2CCC(Nc3cc(=O)oc4ccc(OC)cc34)CC2)cc1 [II-39, 6-Methoxy-4-[1-(4-methoxy-benzyl)-piperidin-4-ylamino]-chromen-2-one trifluoroacetate]
O=c1cc(NC2CCN(Cc3ccc4ncccc4c3)CC2)c2cc(Cl)ccc2o1 [II-40, 6-Chloro-4-(1-quinolin-6-ylmethyl-piperidin-4-ylamino)-chromen-2-one]
O=c1cc(NC2CCN(Cc3ccc4c(c3)OCO4)CC2)c2cc(Cl)cc(Br)c2o1 [II-41, 4-(1-Benzo[1,3]dioxol-5-ylmethyl-piperidin-4-ylamino)-8-bromo-6-chloro-chromen-2-one]
CC(=O)Nc1c(NC2CCN(Cc3ccc4c(c3)OCO4)CC2)c2cc(Cl)ccc2oc1=O [II-42, N-[4-(1-Benzo[1,3]dioxol-5-ylmethyl-piperidin-4-ylamino)-6-chloro-2-oxo-2H-chromen-3-yl]-acetamide]
COc1ccc2oc(=O)cc(NC3CCN(Cc4ccc(OC(F)F)cc4)CC3)c2c1 [II-43, 4-[1-(4-Difluoromethoxy-benzyl)-piperidin-4-ylamino]-6-methoxy-chromen-2-one trifluoroacetate]
COc1ccc2oc(=O)cc(NC3CCN(Cc4ccc5ocnc5c4)CC3)c2c1 [II-44, 4-(1-Benzooxazol-5-ylmethyl-piperidin-4-ylamino)-6-methoxy-chromen-2-one]
C=Cc1ccc2oc(=O)cc(NC3CCN(Cc4ccc(C)c(C)c4)CC3)c2c1 [II-46, 4-{1-(3,4-Dimethyl-benzyl)-piperidin-4-ylamino}-6-vinyl-chromen-2-one]
COc1ccc2oc(=O)cc(NC3CCN(Cc4ccc(OCCCN5CCCCC5)c(F)c4)CC3)c2c1 [II-47, 4-{1-[3-Fluoro-4-(3-piperidin-1-yl-propoxy)-benzyl]-piperidin-4-ylamino}-6-methoxy-chromen-2-one; Double TFA Salt]
CC(=O)c1ccc(CN2CCC(Nc3cc(=O)oc4ccc(Cl)cc34)CC2)cc1 [II-48, 4-[1-(4-Acetyl-benzyl)-piperidin-4-ylamino]-6-chloro-chromen-2-one]
O=c1cc(NC2CCN(Cc3ccc(OCCCN4CCCCC4)cc3)CC2)c2cc(Cl)ccc2o1 [II-49, 6-Chloro-4-{1-[4-(3-piperidin-1-yl-propoxy)-benzyl]-piperidin-4-ylamino}-chromen-2-one; Double TFA Salt]
CCCCOc1ccc(CN2CCC(Nc3cc(=O)oc4ccc(OC)cc34)CC2)cc1 [II-50, 4-[1-(4-Butoxy-benzyl)-piperidin-4-ylamino]-6methoxy-chromen-2-one trifluoroacetate]
O=c1cc(NC2CCN(Cc3ccc4c(c3)OCCCO4)CC2)c2cc(Cl)ccc2o1 [II-51, 6-Chloro-4-[1-(3,4-dihydro-2H-benzo[b][1,4]dioxepin-7-ylmethyl)-piperidin-4-ylamino]-chromen-2-one]
COc1ccc2oc(=O)cc(NC3CCN(Cc4ccc5[nH]ccc5c4)CC3)c2c1 [II-54, 4-[1-(1H-Indol-5-ylmethyl)-piperidin-4-ylamino]-6-methoxy-chromen-2-one]
O=C(NCCN1CCCC1)c1ccc(CN2CCC(Nc3cc(=O)oc4ccc(Cl)cc34)CC2)cc1 [II-55, 4-[4-(6-Chloro-2-oxo-2H-chromen-4-ylamino)-piperidin-1-ylmethyl]-N-(2-pyrrolidin-1-yl-ethyl)-benzamide; Double TFA Salt]
